US20010049374A1 (priority 1997, published 2001)
Like-named read-outs stand apart in the source and are kept apart here.

Biological target: T1, urokinase enzyme Abbokinase (Homo sapiens, UniProt P00749)
T1 construct: purchased Abbott Laboratories, Abbott Park, Ill
Experiment: Determination of urokinase inhibition (Abbokinase, chromogenic substrate S-2444)
Format: biochemical

[1] = Inhibitory potency against urokinase, substrate S-2444 at 200 μM, enzyme 2-3 nM, pH 7.4, 405 nm, read-out: IC50
[2] = IC50, Inhibitory potency against urokinase, substrate S-2444 at 200 μM, enzyme 2-3 nM, pH 7.4, 405 nm

| Compound | IC50 [1] [nM] | IC50 [2] [nM] | other results |
| --- | --- | --- | --- |
| 1,1-Dimethylethyl [4- [[(6-aminoiminomethyl-2-naphthalenyl)amino]carbonyl]phenyl]carbamate [Example 76] | 960 | – | – |
| COC(=O)NCc1cccc2ccc(C(=N)N)cc12 [Example 155, methyl [7-(aminoiminomethyl)-1-naphthalenyl]methyl carbamate] | 2330 | – | – |
| Ethyl [6-(aminoiminomethyl)-2-naphthalenyl]carbamate [Example 78] | 3570 | – | – |
| COc1ccc(CCCOc2c(OC)ccc3ccc(C(=N)N)cc23)cc1OC [Example 24] | – | 4900 | – |
| N=C(N)c1ccc2cc(/C=C/c3ccc(C(N)=O)cc3)ccc2c1 [Example 88, (E)-4-[2-(6-Aminoininomethyl-2-naphthalenyl)ethenyl]benzamide] | 2730 | – | – |
| COC(=O)Nc1cc(C(=O)Nc2ccc(CN)cc2)cc2ccc(C(N)=NO)cc12 [Example 170, methyl [3-[[[4-(aminomethyl)phenyl]amino]carbonyl]-7-[4-amino(hydroxyimino)methyl]-1-naphthalenyl]carbamate] | – | 695 | – |
| 6-(aminoiminomethyl)-N-(1H-indazol-5-yl)-2-naphthalenecarboxamide [Example 204] | 331 | – | – |
| N=C(N)c1ccc2cc(Oc3ccccc3C=O)ccc2c1 [Example 49, 6-(2-Formylphenoxy)-2-naphthalenecarboximidamide] | – | 3300 | – |
| 8-(carbonylbenzyloxy)amino-2-naphthalenecarboximidamide [Example 14] | 330 | – | – |
| COc1ccc(Nc2c(OC)ccc3ccc(C(=N)N)cc23)cc1 [Example 103, 7-methoxy-8-[(4-methoxyphenyl)amino]-2-naphthalenecarboximidamide] | – | 570 | – |
| COc1ccc2ccc(C(=N)N)cc2c1Nc1ncccn1 [Example 91, 7-Methoxy-8-[2-pyrimidinyl(amino)]-2-naphthalenecarboximidamide] | – | 50 | – |
| N-[6-(Aminoiminomethyl)-2-naphthalenyl]-4-(aminomethyl)benzamide [Example 77] | 230 | – | – |
| N=C(N)c1ccc2cc(C#CCCCc3ccccc3)ccc2c1 [Example 32, 6-(5-Phenylpentynyl)-2-naphthalenecarboximidamide] | – | 4600 | – |
| 6-(aminoiminomethyl)-N-(3-phenoxyphenyl)-2-naphthalenecarboxamide [Example 221] | 520 | – | – |
| CC(C)(C)OC(=O)NCC1CCC(C(=O)Nc2ccc3cc(C(=N)N)ccc3c2)CC1 (stereo not drawn) [Example 137, 1,1-dimethylethyl [[4-[[[6-(aminoiminomethyl)-2-naphathalenyl]amino]carbonyl]-cyclohexyl]methyl]carbamate] | 820 | – | – |
| CCCOc1ccc2ccc(C(=N)N)cc2c1I [Example 43, 7-Propoxy-8-iodo-2-naphthalenecarboximidamide] | – | 2200 | – |
| 6-(aminoiminomethyl)-N-(1,2,3,4-tetrahydro-6-quinolinyl)-2-naphthalenecarboxamide [Example 147] | 213 | – | – |
| CCCSc1cc(-c2cc(C(=O)Nc3ccccc3)cc3ccc(C(=N)N)cc23)co1 [Example 201] | 77 | – | – |
| COc1ccc2ccc(C(=N)N)cc2c1Oc1ncccn1 [Example 64, 7-Methoxy-8-[2-pyrimidinyl(oxy)]-2-naphthalenecarboximidamide] | – | 560 | – |
| N-[7-(aminoiminomethyl)-1-naphthalenyl)acetamide [Example 15] | 2500 | – | – |
| 6-(aminoiminomethyl)-N-(1H-imidazolyl)-2-naphthalenecarboxamide [Example 214] | 2560 | – | – |
| N-[6-(aminoiminomethyl)-2-naphthalenyl)benzamide [Example 136] | 1670 | – | – |
| N=C(N)c1ccc2cccc(Nc3ccccn3)c2c1 [Example 174, 8-(2-pyridinylamino)-2-naphthalenecarboximidamide] | – | 170 | – |

| Compound | IC50 [1] [nM] | IC50 [2] [nM] | other results |
| --- | --- | --- | --- |
| CCSC1CC(c2cc(C(=O)Nc3ccccc3)cc3ccc(C(=N)N)cc23)CO1 (stereo not drawn) [Example 232, 6-(aminoiminomethyl)-4-[5-(ethythio)tetrahydro-3-furanyl]-N-phenyl-2-naphthalenecarboxamide] | 123 | – | – |
| 6-(aminoiminomethyl)-N-(5-bromo-2-pyridinyl)-2-naphthalenecarboxamide [Example 210] | 780 | – | – |
| N-[4-(aminocarbonyl)phenyl]-6-(aminoiminomethyl)-2-naphthalenecarboxamide [Example 184] | 375 | – | – |
| 6-(aminoiminomethyl)-N-[3-(cyclobutylmethoxy)phenyl]-2-naphthalenecarboxamide [Example 225] | – | – | IC50 (pH 7.4, read-out: IC50): 104 nM |
| 6-(aminoiminomethyl)-N-(3-pyridazinyl)-2-naphthalenecarboxamide [Example 209] | 820 | – | – |
| 6-(aminoiminomethyl)-N-[3-(1-ethylpropoxy)phenyl]-2-naphthalenecarboxamide [Example 219] | – | – | IC50 (pH 7.4, read-out: IC50): 103 nM |
| N=C(NO)c1ccc2cccc(Nc3ncccn3)c2c1 [Example 177, N-hydroxy-8-(2-pyrimidinylamino)-2-naphthalenecarboximidamide] | – | 14900 | – |
| 6-(aminoiminomethyl)-N-(3-ethoxyphenyl)-2-naphthalenecarboxamide [Example 223] | 70 | – | – |
| N-(6-aminoiminomethyl-2-naphthalenyl)-N′-phenylurea [Example 40] | 310 | – | – |
| N=C(N)c1ccc2cc(-c3ncc(-c4ccccc4)o3)ccc2c1 [Example 144, 6-(5-phenyl-2-oxazolyl)-2-naphthalenecarboximidamide] | – | 1260 | – |
| (E)-6-[2-[4-(hydroxymethyl)phenyl]ethenyl]-2-naphthalenecarboximidamide [Example 108] | 996 | – | – |
| COc1ccc2ccc(C(=N)N)cc2c1Oc1c(F)c(F)c(F)c(F)c1F [Example 67, 7-Methoxy-8-pentafluorophenoxy-2-naphthalenecarboximidamide] | 2780 | – | – |
| ethyl [7-(aminoiminomethyl)-1-naphthalenyl)carbamate [Example 158] | 90 | – | – |
| NC(=NO)c1ccc2cc(C(=O)Nc3ccccc3)cc(Nc3ncccn3)c2c1 [Example 181] | – | 8920 | – |
| [H]/N=C(/N)c1ccc2cc(C=Cn3ccnc3)ccc2c1 [Example 82, (E)-6-[2-(1H-Imidazol-1-yl)ethenyl]-2-naphthalenecarboximidamide] | – | 3080 | – |
| 6-(aminoiminomethyl)-N-[4-(hydroxymethyl)phenyl]-4-(2-pyrimidinylamino)-2-naphthalenecarboxamide [Example 168] | 3 | – | – |
| [(7-aminoiminomethyl-2-methoxy-1-naphthalenyl)oxy]acetic acid [Example 7] | 3500 | – | – |
| N-[7-(aminoiminomethyl)-1-naphthalenyl)propanamide [Example 159] | 2230 | – | – |
| N=C(N)c1ccc2cc(N)ccc2c1 [Example 73, 6-Aminonaphthalene-2-carboximidamide] | – | 3300 | – |
| Methyl [(7-aminoiminomethyl-2-methoxy-1-naphthalenyl)oxy]acetate [Example 6] | 2300 | – | – |
| N=C(N)c1ccc2cc(C#Cc3ccc(CO)cc3)ccc2c1 [Example 126, 6-[[4-(hydroxymethyl)phenyl]ethynyl]-2-naphthalenecarboximidamide] | – | 870 | – |
| COc1ccc2ccc(C(=N)N)cc2c1Nc1ncccn1 [Example 106, 7-methoxy-8-(2-pyrimidinylamino)-2-naphthalenecarboximidamide] | – | 760 | – |
